Two compounds from patent US8552202B2, “Furo[3, 2-B] pyrrol-3-ones as cathespin S inhibitors” (Amura Therapeutics Limited, priority 2008, dated 2013) can be followed below.

What all share (type): biochemical
Assay [1] deals with Human recombinant cathepsin K (Homo sapiens (Human), UniProt P43235). In words: In vitro cathepsin Ki inhibition measurements, cathepsin K. As to conditions: read-out: In vitro Ki (nM) vs Cath K. The procedure:
(§1) Stock solutions of substrate or inhibitor were made up to 10 mM in 100% dimethylsulfoxide (DMSO) (Rathburns, Glasgow, U.K.) and diluted as appropriately required. In all cases the DMSO concentration in the assays was maintained at less than 1% (vol./vol.). The equilibrium inhibition constants (Ki^ss) for each compound were measured under steady-state conditions monitoring enzyme activity as a function of inhibitor concentration. The values were calculated on the assumption of pure competitive behaviour (Cornish-Bowden, A. Fundamentals of enzyme kinetics Portland Press; 1995, 93-128.).
Human recombinant cathepsin K (0.25 nM final; B. Turk, Josef, Stefan Institute, Ljubljana, Slovenia), was routinely assayed in 100 mM sodium acetate; pH 5.5 containing 1 mM EDTA, 10 mM L-cysteine and 1.8 μM Z-Leu-Arg-AMC ([S]=KM).
(§2) The apparent inhibition constant (Ki) for each compound was determined on the basis that inhibition was reversible and occurred by a pure-competitive mechanism. The Ki values were calculated, from the dependence of enzyme activity as a function of inhibitor concentration, by direct regression analysis (Prism v 3.02) using Equation 2 (Cornish-Bowden, A., 1995.).
(§3) In situations where the apparent dissociation constant (Ki^app) approached the enzyme concentrations, the Ki^app values were calculated using a quadratic solution in the form described by Equation 3 (Morrison, J. F. Trends Biochem. Sci., 7, 102-105, 1982; Morrison, J. F. Biochim. Biophys. Acta. 185, 269-286, 1969: Stone, S. R. and Hofsteenge, J. Biochemistry, 25, 4622-4628, 1986).
(§4) Curves were fitted by non-linear regression analysis (Prism) using a fixed value for the enzyme concentration. Equation 4 was used to account for the substrate kinetics, where ‘Ki’ is the inhibition constant, ‘[So]’ is the initial substrate concentration and ‘KM^app’ is the apparent macroscopic binding (Michaelis) constant for the substrate (Morrison, 1982).

The target of a further assay is Human liver cathepsin B (Homo sapiens (Human), UniProt P07858). Description: In vitro cathepsin Ki inhibition measurements, cathepsin B. The settings on record: read-out: In vitro Ki (nM) vs Cath B. The procedure:
as §1
Human liver cathepsin B (0.25 nM final; Merck Biosciences), was routinely assayed in 10 mM bis-tris propane; pH 6.5 containing 1 mM EDTA, 5 mM 2-mercaptoethanol, 1 mM CaCl2 and 60 μM Z-Phe-Arg-AMC ([S]=KM) (Bachem, Weil am Rhein, Germany).
as §2, §3
as §4, with “In Equation 3 ‘vi’ is the observed residual activity, ‘F’ is the difference between the maximum activity (i.e. in the absence of inhibitor) and minimum enzyme activity, ‘Eo’ is the total enzyme concentration, ‘Ki^app’ is the apparent dissociation constant and ‘Io’ is the inhibitor concentration. Curves” for “Curves”

The target in another assay is Human liver cathepsin L (Homo sapiens (Human), UniProt P07711). Description: In vitro cathepsin Ki inhibition measurements, cathepsin L. As to conditions: read-out: In vitro Ki (nM) vs Cath L. The procedure: as §1
Human liver cathepsin L, sequence (P07711 114-333): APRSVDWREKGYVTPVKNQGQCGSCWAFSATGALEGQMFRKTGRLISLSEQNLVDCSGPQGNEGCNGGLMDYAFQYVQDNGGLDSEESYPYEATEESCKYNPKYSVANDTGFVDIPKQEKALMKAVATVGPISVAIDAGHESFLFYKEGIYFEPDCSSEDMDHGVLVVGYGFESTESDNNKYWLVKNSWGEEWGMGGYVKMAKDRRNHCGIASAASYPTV
Human liver cathepsin L (0.25 nM final, Athens Research and Technology, GA, USA) was routinely assayed in 10 mM bis-tris propane; pH 6.5 containing 1 mM EDTA, 5 mM 2-mercaptoethanol, 1 mM CaCl2 and 4 μM Ac-Phe-Arg-AMC ([S]=KM) (Bachem).
as §2, §3, §4

In assay [2] the target is Human recombinant cathepsin S (Homo sapiens (Human), UniProt P25774). Description: In vitro cathepsin Ki inhibition measurements, cathepsin S. The settings on record: for selectivity against other mammalian cathepsins (in words): cathepsin S over other mammalian cathepsins; for Ki: read-out: In vitro Ki (nM) vs Cath S; for improvement in in vitro potency against human cathepsin S: relative to Compound 7. How it is done:
as §1, §2, §3, §4

Assay [3] addresses Human recombinant cathepsin V (Homo sapiens (Human), UniProt O60911). In words: In vitro cathepsin Ki inhibition measurements, cathepsin V. The settings on record: read-out: In vitro Ki (nM) vs Cath V. How it is done: as §1
Human recombinant cathepsin V (0.25 nM final, Merck Biosciences) was routinely assayed in 100 mM sodium acetate; pH 5.5 containing 10 mM L-cysteine, 0.001% (vol./vol.) zwittergent 3-12 (Merck Biosciences) and 5 μM Z-Leu-Arg-AMC (KM=0.5 μM) (Amura).
as §2, §3, §4

Human recombinant cathepsin S, sequence (P25774 115-331): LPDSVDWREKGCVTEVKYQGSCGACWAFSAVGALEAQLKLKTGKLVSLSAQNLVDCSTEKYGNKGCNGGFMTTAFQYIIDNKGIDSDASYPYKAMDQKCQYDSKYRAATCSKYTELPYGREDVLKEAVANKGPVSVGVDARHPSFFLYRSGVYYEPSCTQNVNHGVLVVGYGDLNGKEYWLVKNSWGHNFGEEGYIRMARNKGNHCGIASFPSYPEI
Human recombinant cathepsin K, sequence (P43235 115-329): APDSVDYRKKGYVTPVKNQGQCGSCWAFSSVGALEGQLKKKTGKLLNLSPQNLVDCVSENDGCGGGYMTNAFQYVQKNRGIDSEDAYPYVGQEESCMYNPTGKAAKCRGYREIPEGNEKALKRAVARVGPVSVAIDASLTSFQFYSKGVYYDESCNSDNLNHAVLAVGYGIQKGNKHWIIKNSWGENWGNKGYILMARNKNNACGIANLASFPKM
Human recombinant cathepsin V, sequence (O60911 114-334): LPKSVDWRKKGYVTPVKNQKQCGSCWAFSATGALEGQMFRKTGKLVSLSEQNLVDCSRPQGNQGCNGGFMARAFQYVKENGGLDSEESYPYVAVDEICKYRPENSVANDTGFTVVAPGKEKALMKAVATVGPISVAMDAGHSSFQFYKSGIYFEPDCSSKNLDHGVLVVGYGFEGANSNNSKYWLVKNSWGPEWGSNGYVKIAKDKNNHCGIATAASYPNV

Usually Ki stands for a measure of affinity in units of concentration, obtained from inhibition or displacement. With `C[C@H]1CC[C@H]([C@H](NC(=O)c2cccc(-n3cnnn3)c2)C(=O)N2C[C@H](Cl)[C@H]3OCC(=O)[C@H]32)CC1` [EXAMPLE 2, N—((S)-2-((3aS,6S,6aS)-6-chloro-3-oxodihydro-2H-furo[3,2-b]pyrrol-4(5H,6H,6aH)-yl)-1-((1r,4S)-4-methylcyclohexyl)-2-oxoethyl)-3-(1H-tetrazol-1-yl)benzamide], the Ki in assay [1] was more than 8000 nM; on Human liver cathepsin B it was more than 10000 nM; on Human liver cathepsin L, more than 10000 nM; in assay [2] it was 2.2 nM; in assay [3] it was more than 10000 nM. In addition, the “selectivity against other mammalian cathepsins (in words)” value in assay [2] is on record as “high selectivity”. In addition, in assay [2], the “improvement in in vitro potency against human cathepsin S” value is reported as 77 fold.

Consider `CC1(C)CCC([C@H](NC(=O)c2cccc(-n3cnnn3)c2)C(=O)N2C[C@H](Cl)[C@H]3OCC(=O)[C@H]32)CC1` [EXAMPLE 3, N—((S)-2-((3aS,6S,6aS)-6-chloro-3-oxodihydro-2H-furo[3,2-b]pyrrol-4(5H,6H,6aH)-yl)-1-(4,4-dimethylcyclohexyl)-2-oxoethyl)-3-(1H-tetrazol-1-yl)benzamide], for which the Ki in assay [1] is more than 10000 nM; at Human liver cathepsin B, more than 10000 nM; at Human liver cathepsin L, more than 10000 nM; in assay [2], 12 nM; in assay [3] it was 1700 nM. For the same compound, the “selectivity against other mammalian cathepsins (in words)” value in assay [2] is recorded as “high selectivity”. In addition, the “improvement in in vitro potency against human cathepsin S” value in assay [2] was 15 fold.
